Assay results: publication PMC7363035 (ACS infectious diseases, 2020)
Read-outs that look alike come from different tables or passages of the source. Marks after values point to notes of the source that are not given here.

Legend:
[1] = human liver microsomes; cited from earlier work
[2] = cited from earlier work
[3] = tested on: P. berghei; settings: cited from earlier work
[4] = Log D in octanol/PBS pH 7.4; type: physicochemical
[5] = Mouse pharmacokinetics after a single oral dose; type: in vivo
[6] = cited from earlier work; remark: listed apart in the source
[7] = Mouse liver microsome; type: in vitro ADME; settings: mouse liver microsomes; data generated via Medicines for Malaria Venture
[8] = Solubility in PBS pH 7.4; type: physicochemical
[9] = male, CD-1, mouse, plasma, po, 50 mg/kg
[10] = single dose of 50 mg/kg by oral gavage, male CD-1 mice

Compound	HLM CLint [1] [µL/min/mg]	HLM T1/2 [1] [h]	Solubility in PBS pH 7.4 [2]	cures ([3]; Experiment 1, PO 6 mg/kg/day (4 days), female Swiss Webster mice, cured = parasitemia undetectable at day 30)	logD [4]	AUC(0-t) [5, 9] [ng·h/mL]	Tmax [5, 9] [h]	Log D in octanol/PBS; pH 7.4 [6]	effective single dose in the P. berghei model ([3]; single dose) [mg/kg]	MLM CLint [7] [µL/min/mg]	MLM T1/2 [7] [min]	Log D in octanol/PBS; pH 7.4 ([4]; data generated via Medicines for Malaria Venture)	Solubility in PBS pH 7.4 [8] [μM]	fold lower systemic exposure than 8c or 8n ([5]; mouse PK study with oral dosing)	AUClast [5, 10] [ng·h/mL]	Cmax [5, 10] [ng/mL]	Tmax [5, 10] [h]
CC(C)(N)CNC(=O)C[C@H]1CC[C@]2(CC1)OO[C@]1(O2)C2CC3CC(C2)CC1C3 [OZ277, arterolane]	<7	>1	504 μM	4/5													
c1cc([C@H]2CC[C@]3(CC2)OO[C@]2(O3)C3CC4CC(C3)CC2C4)ccc1OCCN1CCOCC1 [OZ439, artefenomel]			0.181^b μM		5.81	52600 ± 4810	2	5.5	20								
O=C(O[C@@H]1CCC[C@]2(C1)OOC1(O2)C2CC3CC(C2)CC1C3)N1CCNCC1 (stereo partly drawn) [8e, (1R,3”R)-Dispiro[adamantane-2,3’-[1,2,4]trioxolane-5’,1”-cyclohexan]-3”-yl piperazine-1-carboxylate]										321	4.3	3.25	157.0	~ three-fold	1070 ± 127	223 ± 25	2
